Measured values as given in patent US11945826B2, “Hydroxypyridoxazepines as NRF2 activators” (GLAXOSMITHKLINE INTELLECTUAL PROPERTY DEVELOPMENT LIMITED, priority 2019, dated 2024).
Like-named read-outs stand apart in the source and are kept apart here.

Experiments:
[1] = tested on: Nrf2 (NQO1 activity in BEAS-2B cells); assay: BEAS-2B NQO1 MTT Assay; format: cell-based; details: Homo sapiens, NQO1 specific activity induction
Excerpt: NAD(P)H:quinone oxidoreductase 1 (NQO1), also called DT diaphorase, is a homodimeric FAD-containing enzyme that catalyzes obligatory NAD(P)H-dependent two-electron reductions of quinones and protects cells against the toxic and neoplastic effects of free radicals and reactive oxygen species arising from one-electron reductions. The transcription of NQO1 is finely regulated by Nrf2, and thus NQO1 activity is a good marker for Nrf2 activation. On day one, frozen BEAS-2B cells (ATCC) were thawed in a water bath, counted, and re-suspended at a concentration of 250,000 cells/mL. Fifty microliters of cells were plated in 384 well black clear-bottomed plates. Plates were incubated at 37° C., 5% CO2 overnight. On day two, plates were centrifuged and 50 nL of compound or controls were added to the cells. Plates were then incubated at 37° C., 5% CO2 for 48 hours. On day four, medium was aspirated from the plate and crude cell lysates were made by adding 13 μL of 1× Cell Signalling Technologies lysis buffer with 1 Complete, Mini, EDTA-free Protease Inhibitor Tablet (Roche) for each 10 mL of lysis buffer. After lysis plates were incubated for 20 minutes at room temperature. Two microliters of lysate were removed for use in Cell Titer Glo assay (Promega) and MTT cocktail was prepared (Prochaska et. al. 1998) for measurement of NQO1 activity. Fifty microliters of MTT cocktail was added to each well, plate was centrifuged, and analyzed on an Envision plate reader (Perkin Elmer) using Absorbance 570 nm label for 30 minutes. Product formation was measured kinetically and the pEC50 of NQO1 specific activity induction was calculated by plotting the change in absorbance (Delta OD/min) versus the log of compound concentration followed by 3-parameter fitting.
EC50s<1 nM (+++++), EC50s 1 nM-10 nM (++++), EC50s 10 nM-100 nM (+++), EC50s 100 nM-1 μM (++), EC50s 1 μM-10 μM (+).

human PXR = target: T1, human PXR (Homo sapiens, UniProt O75469); assay: Human PXR Activation Assay; format: cell-based; details: for EC50: HepG2 transfected with human PXR and CYP3A4 promoter luciferase, 24 h; for Emax at 24 h: human, percent maximum induction compared to 10 μM rifampicin
T1 construct: expression vectors containing full length human PXR; expressed in transfected cells; host or cells: HepG2 (human hepatocellular carcinoma line), transient transfection with FuGENE
T1 sequence (O75469 1-434): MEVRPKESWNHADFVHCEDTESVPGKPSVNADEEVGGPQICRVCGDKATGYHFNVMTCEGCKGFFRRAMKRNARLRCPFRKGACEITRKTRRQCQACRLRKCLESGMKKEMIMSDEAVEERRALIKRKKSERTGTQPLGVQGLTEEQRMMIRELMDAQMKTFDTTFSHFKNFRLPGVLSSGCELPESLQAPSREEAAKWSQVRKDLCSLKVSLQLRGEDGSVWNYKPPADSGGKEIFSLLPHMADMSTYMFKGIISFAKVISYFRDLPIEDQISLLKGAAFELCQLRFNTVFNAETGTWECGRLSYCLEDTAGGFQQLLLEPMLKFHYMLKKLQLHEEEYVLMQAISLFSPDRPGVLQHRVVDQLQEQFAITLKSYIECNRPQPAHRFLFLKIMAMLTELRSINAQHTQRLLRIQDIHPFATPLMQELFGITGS
Method: Transactivation activity of PXR ligands was measured in a human hepatocellular carcinoma line (HepG2) batch transiently transfected using FuGENE™ with expression vectors containing full length human PXR and the human CYP3A4 promoter driving luciferase expression. Following transfection, cells are frozen until required for assay.
On day of assay, cells were recovered, counted on a CEDEX instrument then resuspended to a density of 50,000 cells/mL in phenol red-free DMEM-F12 supplemented with 10% charcoal/dextran-treated FBS. 20 μl of cell suspension was then dispensed to each well of white Nunc 384-well plates, containing […] of test compounds in DMSO. Cells were incubated for 24 h in the presence compound after which time […] of Steady-Lite™ luciferase substrate was added to each well. Luciferase activity was quantified by measurement on the Pherastar™ imager and activity was expressed as percent maximum induction as compared to induction by 10 μM rifampicin.

Rat PK Study = format: in vivo; details: plasma, nominal 1 mg/kg 30-minute intravenous infusion; for MRT: read-out: Rat Pharmacokinetics MRT; for clearance: read-out: Rat Pharmacokinetics Total Clearance
Method: All studies were conducted after review by the GSK Institutional Animal Care and Use Committee and in accordance with the GSK Policy on the Care, Welfare and Treatment of Laboratory Animals. This study was conducted with a crossover design on two study days with a one-day recovery period between each study day. At least three days prior to the start of the study, three rats received surgically implanted femoral vein, femoral artery, and gastric catheters for infusion of test molecules, blood sampling, and oral dose administration, respectively. Dose solutions were filtered prior to administration and the actual dosage administered to the animals was quantified. All PK parameters were calculated based on the actual dosage administered to each animal. Urine was collected from 0-24 h following iv administration from each animal for determination of renal clearance.
The compounds used in this study were the compound of Example 1, herein, and Compound A (the compound of Example 1 of WO 2018/109646).
The dose for intravenous administration was prepared in 20% Cavitron™ and 5% DMSO. The intravenous dose formulation was filtered through a 0.22-micron polytetrafluoroethylene (PTFE) filter prior to administration. The dose for oral solution administration was prepared in 6% Cavitron™ and 5% DMSO and was filtered through a 0.22-micron VWR PTFE filter prior to administration.
Each animal received a nominal dose of 1 mg/kg (4 mL/kg dose volume) as a 30-minute intravenous infusion on study day one. On study day two, each animal received a nominal dose of 2 mg/kg (16 mL/kg dose volume) as an oral gavage. Blood samples (approximately 0.11 mL each) were collected from the femoral artery catheter. […] Plasma was isolated from blood by centrifugation and a 30 μL aliquot was transferred to a non-heparinized tube, quick frozen on solid carbon dioxide and stored at approximately −80° C. until analyzed by liquid chromatography/tandem mass spectroscopy (LC/MS/MS) for test compound concentration.
Pharmacokinetic parameters for all in vivo PK studies were calculated using non-compartmental methods with Phoenix WinNonlin version 6.1.0 or 8.1.0. All parameters were calculated using actual blood sampling times and actual dosages for each animal. The extrapolated area under the curve (AUC0-inf) was determined using unweighted linear regression analysis of at least three log transformed concentrations visually assessed to be on the linear portion of the terminal elimination slope. Oral solution bioavailability was calculated in a non-crossover fashion using the mean intravenous dose and AUC0-inf values from the two intravenously dosed animals for the monkey PK study and in a crossover fashion for the rat PK study.

[2] = read-out: Nrf2 BEAS-2B NQO1 EC50

SMILES | EC50 [1, 2] [nM] | EC50 (human PXR) [nM] | Emax at 24 h (human PXR) [%] | MRT (Rat PK Study) [h] | clearance (Rat PK Study) [mL/min/kg] | EC50 ([1]; 48 hours, read-out: EC50) [nM]
CC[C@@H]1CN(Cc2cc([C@@H](CC(=O)O)c3ccc4c(nnn4C)c3C)ccc2C)Cc2ncccc2O1 [Compound A, reference compound] | 16 | 25000 | 56 | 4 | 1.9 | 
CC[C@@H]1CN(Cc2cc([C@@H](CC(=O)O)c3ccc4c(nnn4C)c3C)ccc2C)Cc2nc(O)ccc2O1 [Example 1, (R)-3-(1,4-dimethyl-1H-benzo[d][1,2,3]triazol-5-yl)-3-(3-(((R)-2-ethyl-7-hydroxy-2,3-dihydropyrido[2,3-f][1,4]oxazepin-4(5H)-yl)methyl)-4-methylphenyl)propanoic acid] | 13 | > 50000 | 10 | 6.5 | 5.2 | 10 to 100
